Assay results reported in patent US12679848B2, “Plasma kallikrein inhibitors” (Merck Sharp & Dohme LLC, priority 2020, dated 2026).

Tests used:
Human plasma kallikrein = target: T1, Human plasma kallikrein (Homo sapiens, UniProt P03952); experiment: Plasma Kallikrein Assay; format: biochemical; conditions: purified Human plasma kallikrein 0.5 nM, substrate Acetyl-K-P-R-AFC, HEPES pH 7.4; read-out: PKal IC50
T1 construct: yields a heavy chain (371 amino acids) and a light chain (248 amino acids); The active site of plasma kallikrein is contained in the light chain; purchased Enzyme Research Laboratories
How it was run: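 Purified human plasma kallikrein at 0.5 nM final with substrate Acetyl-K-P-R-AFC at […], in 50 mM HEPES pH 7.4, 150 mM NaCl, 5 mM CaCl2, 0.1% PEG 8000, at rt or 37° C after enzyme-inhibitor equilibration. IC50 from four-parameter logistic fit of fluorescence rate; Ki via Cheng-Prusoff.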

human factor XIa = human factor XIa (Homo sapiens, UniProt P03951); experiment: Factor XIa Assay; format: biochemical; conditions: human factor XIa 0.04 nM, substrate GPR-AFC, 30 min pre-incubation, 25° C., pH 7.4; read-out: FXIa IC50
Sequence of human factor XIa (P03951 388-625 limits assumed): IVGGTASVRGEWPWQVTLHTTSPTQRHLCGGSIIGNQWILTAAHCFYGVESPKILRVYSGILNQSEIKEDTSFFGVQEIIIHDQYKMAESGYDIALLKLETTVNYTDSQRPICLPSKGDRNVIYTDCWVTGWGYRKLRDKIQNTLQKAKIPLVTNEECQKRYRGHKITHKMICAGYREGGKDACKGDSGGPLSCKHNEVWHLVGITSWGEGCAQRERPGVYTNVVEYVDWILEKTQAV
Sequence of human factor XIa (P03951 19-387 partner limits assumed): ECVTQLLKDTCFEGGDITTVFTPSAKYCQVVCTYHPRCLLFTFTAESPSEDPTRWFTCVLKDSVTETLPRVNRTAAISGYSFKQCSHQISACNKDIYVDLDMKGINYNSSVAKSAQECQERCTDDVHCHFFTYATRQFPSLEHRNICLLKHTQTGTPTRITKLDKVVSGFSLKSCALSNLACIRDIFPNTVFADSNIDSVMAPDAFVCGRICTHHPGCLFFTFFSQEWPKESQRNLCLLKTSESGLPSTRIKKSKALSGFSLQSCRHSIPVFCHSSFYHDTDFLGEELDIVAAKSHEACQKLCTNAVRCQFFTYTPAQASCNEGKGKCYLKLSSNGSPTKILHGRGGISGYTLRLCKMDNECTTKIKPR

T1 sequence (P03952 391-638 limits assumed): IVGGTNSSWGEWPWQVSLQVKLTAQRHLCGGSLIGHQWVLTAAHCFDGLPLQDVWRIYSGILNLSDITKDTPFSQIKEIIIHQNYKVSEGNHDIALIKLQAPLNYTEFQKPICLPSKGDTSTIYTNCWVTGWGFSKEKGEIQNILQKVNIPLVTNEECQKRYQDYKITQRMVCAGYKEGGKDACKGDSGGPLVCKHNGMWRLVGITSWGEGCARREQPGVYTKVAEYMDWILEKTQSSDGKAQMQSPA
T1 sequence (P03952 20-390 partner limits assumed): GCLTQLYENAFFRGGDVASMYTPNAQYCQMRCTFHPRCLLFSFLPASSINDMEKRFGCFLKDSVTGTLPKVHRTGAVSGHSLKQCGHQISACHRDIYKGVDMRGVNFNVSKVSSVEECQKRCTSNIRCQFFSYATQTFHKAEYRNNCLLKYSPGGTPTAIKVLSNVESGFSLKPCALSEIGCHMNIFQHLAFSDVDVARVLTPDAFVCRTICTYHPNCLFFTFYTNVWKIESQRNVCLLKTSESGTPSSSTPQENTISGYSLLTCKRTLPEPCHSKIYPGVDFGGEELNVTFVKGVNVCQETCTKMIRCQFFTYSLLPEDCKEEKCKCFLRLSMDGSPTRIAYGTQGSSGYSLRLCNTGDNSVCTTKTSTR

Row | IC50 (Human plasma kallikrein) | IC50 (human factor XIa) | SMILES
1 | 7.2 nM | 582 nM | Nc1c(C(=O)N2CCC[C@@]3(C2)OC(=O)Nc2ccc(Cl)c(F)c23)cnn1CC1CC1 [Example 13, (R)-1'-(5-Amino-1-(cyclopropylmethyl)-1H-pyrazole-4-carbonyl)-6-chloro-5-fluorospiro[benzo[d][1,3]oxazine-4,3'-piperidin]-2(1H)-one]
2 | 22.9 nM | 855 nM | Nc1c(C(=O)N2CCC[C@@]3(C2)OC(=O)Nc2ccc(Cl)c(F)c23)cnn1-c1ncccc1F [Example 62, (R)-1'-(5-Amino-1-(3-fluoropyridin-2-y1)-1H-pyrazole-4-carbonyl)-6-chloro-5-fluorospiro[benzo[d][1,3]oxazine-4,3'-piperidin]-2(1H)-one]
3 | 42.5 nM | 1750 nM | Cc1ncccc1-n1ncc(C(=O)N2CCC[C@@]3(C2)OC(=O)Nc2ccc(Cl)c(F)c23)c1N [Example 61, (R)-1'-(5-Amino-1-(2-methylpyridin-3-y1)-1H-pyrazole-4-carbonyl)-6-chloro-5-fluorospiro[benzo[d][1,3]oxazine-4,3'-piperidin]-2(1H)-one]
4 | 8.9 nM | 1200 nM | CC(C)n1ncc(C(=O)N2CCC[C@@]3(C2)OC(=O)Nc2ccc(Cl)c(F)c23)c1N [Example 34, (R)-1'-(5-Amino-1-isopropyl-1H-pyrazole-4-carbonyl)-6-chloro-5-fluorospiro[benzo[d][1,3]oxazine-4,3'-piperidin]-2(1H)-one]
5 | 13.1 nM | 516 nM | Nc1c(C(=O)N2CCC[C@@]3(C2)OC(=O)Nc2ccc(Cl)c(F)c23)cnn1CC(F)(F)C(F)(F)F [Example 48, (R)-1'-(5-Amino-1-(2,2,3,3,3-pentafluoropropyl)-1H-pyrazole-4-carbonyl)-6-chloro-5-fluorospiro[benzo[d][1,3]oxazine-4,3'-piperidin]-2(1H)-one]
6 | 21 nM | 1460 nM | CC1(n2ncc(C(=O)N3CCC[C@@]4(C3)OC(=O)Nc3ccc(Cl)c(F)c34)c2N)CCS(=O)(=O)C1 (single isomer, unassigned) [Example 119]
7 | 27.3 nM | 923 nM | Nc1c(C(=O)N2CCC[C@@]3(C2)OC(=O)Nc2ccc(Cl)c(F)c23)cnn1-c1ccccc1F [Example 84, (R)-1'-(5-Amino-1-(2-fluorophenyl)-1H-pyrazole-4-carbonyl)-6-chloro-5-fluorospiro[benzo[d][1,3]oxazine-4,3'-piperidin]-2(1H)-one]

More lines, now with the values behind:

Row | SMILES | IC50 (Human plasma kallikrein) | IC50 (human factor XIa)
8 | Cc1c(CO)cccc1-n1ncc(C(=O)N2CCC[C@@]3(C2)OC(=O)Nc2ccc(Cl)c(F)c23)c1N [Example 63, (R)-1'-(5-Amino-1-(3-(hydroxymethyl)-2-methylphenyl)-1H-pyrazole-4-carbonyl)-6-chloro-5-fluorospiro[benzo[d][1,3]oxazine-4,3'-piperidin]-2(1H)-one] | 29 nM | 1580 nM
9 | Nc1c(C(=O)N2CCC[C@@]3(C2)OC(=O)Nc2ccc(Cl)c(F)c23)cnn1CCN1CCOCC1 [Example 14, (R)-1'-(5-Amino-1-(2-morpholinoethyl)-1H-pyrazole-4-carbonyl)-6-chloro-5-fluorospiro[benzo[d][1,3]oxazine-4,3'-piperidin]-2(1H)-one] | 42.8 nM | 3180 nM
10 | Nc1c(C(=O)N2CCC[C@@]3(C2)OC(=O)Nc2ccc(Cl)c(F)c23)cnn1CC1CCCCC1 [Example 36, (R)-1'-(5-Amino-1-(cyclohexylmethyl)-1H-pyrazole-4-carbonyl)-6-chloro-5-fluorospiro[benzo[d][1,3]oxazine-4,3'-piperidin]-2(1H)-one] | 2 nM | 140 nM
11 | Nc1c(C(=O)N2CCC[C@@]3(C2)OC(=O)Nc2ccc(Cl)c(F)c23)cnn1CCOc1ccc(Cl)cc1 [Example 37, (R)-1'-(5-Amino-1-(2-(4-chlorophenoxy)ethyl)-1H-pyrazole-4-carbonyl)-6-chloro-5-fluorospiro[benzo[d][1,3]oxazine-4,3'-piperidin]-2(1H)-one] | 10.5 nM | 4600 nM
12 | Nc1c(C(=O)N2CCC[C@@]3(C2)OC(=O)Nc2ccc(Cl)c(F)c23)cnn1-c1cc(F)ccc1Cl [Example 78, (R)-1'-(5-Amino-1-(2-chloro-5-fluorophenyl)-1H-pyrazole-4-carbonyl)-6-chloro-5-fluorospiro[benzo[d][1,3]oxazine-4,3'-piperidin]-2(1H)-one] | 35.9 nM | 813 nM
13 | CCC(n1ncc(C(=O)N2CC(C)(C)C[C@@]3(C2)OC(=O)Nc2ccc(Cl)c(F)c23)c1N)C(F)(F)F (single isomer, unassigned) [Example 131, (R)-1'-(5-Amino-1-((S or R)-1,1,1-trifluorobutan-2-y1)-1H-pyrazole-4-carbonyl)-6-chloro-5-fluoro-5',5'-dimethylspiro[benzo[d][1,3]oxazine-4,3'-piperidin]-2(1H)-one] | 1.2 nM | 70 nM
14 | COc1cccnc1-n1ncc(C(=O)N2CCC[C@@]3(C2)OC(=O)Nc2ccc(Cl)c(F)c23)c1N [Example 108, (R)-1'-(5-Amino-1-(3-methoxypyridin-2-y1)-1H-pyrazole-4-carbonyl)-6-chloro-5-fluorospiro[benzo[d][1,3]oxazine-4,3'-piperidin]-2(1H)-one] | 39.6 nM | 1690 nM
15 | Nc1c(C(=O)N2CCC[C@@]3(C2)OC(=O)Nc2ccc(Cl)c(F)c23)cnn1-c1cccc(F)c1OC(F)F [Example 107, (R)-1'-(5-Amino-1-(2-(difluoromethoxy)-3-fluorophenyl)-1H-pyrazole-4-carbonyl)-6-chloro-5-fluorospiro[benzo[d][1,3]oxazine-4,3'-piperidin]-2(1H)-one] | 15.2 nM | 461 nM
16 | Nc1c(C(=O)N2CCC[C@@]3(C2)OC(=O)Nc2ccc(Cl)c(F)c23)cnn1-c1cccc(C(=O)O)c1 [Example 68, (R)-3-(5-Amino-4-(6-chloro-5-fluoro-2-oxo-1,2-dihydrospiro[benzo[d][1,3]oxazine-4,3'-piperidine]-1'-carbonyl)-1H-pyrazol-1-yl)benzoic acid] | 13.5 nM | 1480 nM
17 | Nc1c(C(=O)N2CCC[C@@]3(C2)OC(=O)Nc2ccc(Cl)c(F)c23)cnn1Cc1ccncc1 [Example 32, (R)-1'-(5-Amino-1-(pyridin-4-ylmethyl)-1H-pyrazole-4-carbonyl)-6-chloro-5-fluorospiro[benzo[d][1,3]oxazine-4,3'-piperidin]-2(1H)-one] | 1.7 nM | 268 nM
18 | Nc1c(C(=O)N2CCC[C@@]3(C2)OC(=O)Nc2ccc(Cl)c(F)c23)cnn1-c1c(Cl)cncc1Cl [Example 102, (R)-1'-(5-Amino-1-(3,5-dichloropyridin-4-y1)-1H-pyrazole-4-carbonyl)-6-chloro-5-fluorospiro[benzo[d][1,3]oxazine-4,3'-piperidin]-2(1H)-one] | 3.8 nM | 12 nM
19 | CC1(C)CN(C(=O)c2cnn(Cc3ccccc3)c2N)C[C@]2(C1)OC(=O)Nc1ccc(Cl)c(F)c12 [Example 10, (R)-1'-(5-Amino-1-benzyl-1H-pyrazole-4-carbonyl)-6-chloro-5-fluoro-5',5'-dimethylspiro[benzo[d][1,3]oxazine-4,3'-piperidin]-2(1H)-one] | 1.3 nM | 122 nM
20 | COc1ccc(Cl)cc1-n1ncc(C(=O)N2CCC[C@@]3(C2)OC(=O)Nc2ccc(Cl)c(F)c23)c1N [Example 94, (R)-1'-(5-Amino-1-(5-chloro-2-methoxyphenyl)-1H-pyrazole-4-carbonyl)-6-chloro-5-fluorospiro[benzo[d][1,3]oxazine-4,3'-piperidin]-2(1H)-one] | 11.8 nM | 1290 nM
